# Experiments:
# Assay type in all cases: biochemical
# human PARLΔ77 [1] = experiment: IQ-peptide substrate cleavage kinetics, PARLΔ77 in proteoliposomes; conditions: for fold change Km/kcat, PARLΔ77/PARLΔ55 / fold change kcat, PARLΔ77/PARLΔ55: PARL in PLs; for turnover / proteolysis with PARLΔ77 compared with PARLΔ55: in PL
# Text: To assess the activity of recombinant PARL toward known substrates in a lipid bilayer, full-length and β-truncated PARL were reconstituted in proteoliposomes (PLs) using Escherichia coli lipids that closely resemble the composition of the IMM ([31]). We determined that the EDANS/Dabcyl - FRET tags prevented incorporation of the substrates into PL; however, the substrate could still be cleaved since the active site is proposed to be near the lipid/water interface ([40], [41]) analogous to bacterial rhomboid proteases (Fig. 1). To calculate the specific activity of the protease, we quantified the fraction of PARL in the PLs with an outward facing active site using a membrane […] activity-based TAMRA-labeled fluorophosphonate probe ([42]). […] These values were used to calculate specific activity of the PARL protease. Next, we compared cleavage of three IQ-peptide substrates by reconstituted full-length mature PARLΔ55 and the β-truncated form, PARLΔ77 (Fig. 3, Tables S5 and S6).
# (§1) Assays with FRET-PINK1^70–134 were conducted as previously described ([26]). For EDANS/Dabcyl 10-mer IQ peptides (PINK1, PGAM5, Smac/Diablo), lyophilized peptides were initially dissolved in DMSO to obtain a stock solution. The IQ peptide substrates in a concentration range of 0.1–70 μM were incubated with activity assay buffer (50 mM Tris-HCl pH 7.0, 150 mM NaCl, 10% glycerol, 0.1% DDM) in a 384-well black-bottomed plate at 37 °C for 30 min in a multiwell plate reader (SynergyMx, BioTek). For all concentrations of IQ peptide, the DMSO was kept constant at 5%. Following preincubation, PARL was added to a final concentration of 0.8 μM to initiate the cleavage reaction. Fluorescence readings were taken every 3 min over a 3 h time course at ƛex = 336 nm and ƛem = 490 nm. The initial velocity was determined from the fluorescence readings over the time course. For each substrate concentration, a no-enzyme control was subtracted to eliminate background fluorescence changes not related to substrate cleavage. Relative fluorescence units were converted to concentration (μM) by determining the maximum change in fluorescence observed for each substrate concentration when fully digested. GraphPad Prism software was used for Michaelis–Menten analysis of kinetic curves. All kinetic data were obtained using at least three biological replicates (different enzyme preparations) with technical duplicates for each experiment. For kinetic measurements in detergent with all three substrates, the activity assays were repeated at least five times. In addition, after each protease purification, the quality control of purified PARL was controlled by measuring its enzymatic activity. Minimum of three experimental replicates with two technical replicates were used for data analysis.
# E. coli polar lipids (Avanti), 400 μg in chloroform, were dried under nitrogen stream in a glass tube to yield a thin film of lipid. The tube was incubated overnight in a desiccator to completely remove all traces of solvent. In total, 50 μl of water and DDM detergent was added to the lipid film for resuspension at room temperature for 10 min, followed by the addition of purified PARL (400 μg) in 50 mM Tris-HCl, pH 8.0, 150 mM NaCl, 20% glycerol, 0.1% DDM, to yield the final weight ratio of 1 PARL:1 lipid:2 detergent. The detergent was slowly removed by the addition of SM2 Biobeads (Bio-Rad) while stirring on ice for 6 h to allow for the generation of proteoliposomes (PL); the process was controlled by the regimen of Biobead addition. To purify the PL, 50%:20% sucrose density gradient ultracentrifugation was used. A TAMRA probe (ThermoFisher) was used to determine the orientation of reconstituted PARL, which specifically and covalently labels serine residues of an enzymatically active serine protease. In total, 2 μM of TAMRA probe was added to PL samples and incubated for 1 h, allowing the TAMRA probe to label only the outward-facing accessible active sites. […]
# PARLΔ77 [2] = molecular target: T1, PARLΔ77 (Homo sapiens, UniProt Q9H300); experiment: IQ-peptide substrate cleavage kinetics, β-cleavage PARLΔ77 in detergent; conditions: PARLΔ77 0.8 μM in 0.1% DDM with CL, 50 mM Tris-HCl pH 7.0, 150 mM NaCl, 10% glycerol, 5% DMSO, 37 °C, fluorescence; mean ± SEM
# T1 construct: GFP-hexahistidine (behind a TEV cleavage site) (C, cleaved yes); made in house; host or cells: Pichia pastoris
# T1 sequence (Q9H300 78-379): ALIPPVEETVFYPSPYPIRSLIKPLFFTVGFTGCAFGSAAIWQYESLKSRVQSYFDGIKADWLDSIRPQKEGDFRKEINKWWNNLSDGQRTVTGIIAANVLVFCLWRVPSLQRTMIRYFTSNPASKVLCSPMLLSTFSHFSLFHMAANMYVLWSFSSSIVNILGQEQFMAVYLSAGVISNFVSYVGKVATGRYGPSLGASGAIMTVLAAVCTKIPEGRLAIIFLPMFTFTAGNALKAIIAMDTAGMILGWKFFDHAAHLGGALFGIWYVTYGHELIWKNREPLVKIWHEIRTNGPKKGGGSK
# Text: (§2) To further evaluate the cleavage of other known substrates of PARL, we adopted a more facile system to examine cleavage of multiple substrates and generated internally quenched (IQ) peptide substrates ([25], [36], [37], [38]) based on the amino acids flanking the PARL cleavage sites of PINK1 ([39]), PGAM5 ([8]), and Smac/Diablo ([11]). […] The assay allowed us to determine the catalytic parameters for the three primary PARL substrates and examine the substrate specificity (Fig. 2, Tables S2–S4).
# as §1
# human PARLΔ77 [3] = experiment: as above; conditions: for fold change Km/kcat, PARLΔ77/PARLΔ55 / fold change kcat, PARLΔ77/PARLΔ55: PARL in DDM; for turnover rate with PARLΔ77 compared with PARLΔ55 / ranking of substrate cleavage: in detergent; for ranking of substrate cleavage: PARLΔ55 and PARLΔ77, by kcat or kcat/KM
# Text: as §2, §1
# PARLΔ77 [4] = molecular target: T1, PARLΔ77; experiment: IQ-peptide substrate cleavage kinetics, PARLΔ77 in proteoliposomes; conditions: PARLΔ77 in PLs (E. coli polar lipids), 50 mM Tris-HCl pH 7.0, 150 mM NaCl, 10% glycerol, no DDM, 37 °C, mean ± SEM
substance,measurement,setting,value
"(DABCYL)-AVFLAFGLGL-Glu(EDANS) [IQ-PINK1^99–108, internally quenched DABCYL/EDANS peptide substrate based on PINK1 PARL cleavage site]","fold change Km/kcat, PARLΔ77/PARLΔ55",human PARLΔ77 [1],5 fold
same,"fold change kcat, PARLΔ77/PARLΔ55",human PARLΔ77 [1],3 fold
same,Km,PARLΔ77 [2],3.3 ± 0.5 µM
same,kcat (turnover rate),PARLΔ77 [2],0.000361 ± 2.8e-05 s⁻¹
same,kcat/KM (catalytic efficiency),PARLΔ77 [2],110 ± 28 M⁻¹ s⁻¹
same,"fold change Km/kcat, PARLΔ77/PARLΔ55",human PARLΔ77 [3],2 fold
same,"fold change kcat, PARLΔ77/PARLΔ55",human PARLΔ77 [3],3 fold
same,turnover rate with PARLΔ77 compared with PARLΔ55,human PARLΔ77 [3],increased
same,Km,PARLΔ77 [4],8 ± 1 µM
same,kcat (turnover rate),PARLΔ77 [4],0.00778 ± 0.00056 s⁻¹
same,kcat/KM (catalytic efficiency),PARLΔ77 [4],972 ± 170 M⁻¹ s⁻¹
"(DABCYL)-AVFLSAVAVG-Glu(EDANS) [IQ-PGAM5^20–29, internally quenched DABCYL/EDANS peptide substrate based on PGAM5 PARL cleavage site]","fold change Km/kcat, PARLΔ77/PARLΔ55",human PARLΔ77 [1],7 fold
same,"fold change kcat, PARLΔ77/PARLΔ55",human PARLΔ77 [1],4 fold
same,Km,PARLΔ77 [2],1.6 ± 0.2 µM
same,kcat (turnover rate),PARLΔ77 [2],0.000272 ± 1.1e-05 s⁻¹
same,kcat/KM (catalytic efficiency),PARLΔ77 [2],170 ± 28 M⁻¹ s⁻¹
same,"fold change Km/kcat, PARLΔ77/PARLΔ55",human PARLΔ77 [3],0.6 fold
same,"fold change kcat, PARLΔ77/PARLΔ55",human PARLΔ77 [3],2 fold
same,turnover rate with PARLΔ77 compared with PARLΔ55,human PARLΔ77 [3],increased
same,ranking of substrate cleavage,human PARLΔ77 [3],most efficiently cleaved
same,Km,PARLΔ77 [4],0.8 ± 0.2 µM
same,kcat (turnover rate),PARLΔ77 [4],0.00583 ± 0.00028 s⁻¹
same,kcat/KM (catalytic efficiency),PARLΔ77 [4]; listed as PGAM5,7220 ± 2200 M⁻¹ s⁻¹
same,kcat/KM (catalytic efficiency),PARLΔ77 [4]; listed as PGAM520-29,7220 ± 2200 M⁻¹ s⁻¹
"(DABCYL)-GVT LCAVPIA-Glu(EDANS) [IQ-Smac/Diablo^51–60, internally quenched DABCYL/EDANS peptide substrate based on Smac/Diablo PARL cleavage site]","fold change Km/kcat, PARLΔ77/PARLΔ55",human PARLΔ77 [1],2 fold
same,"fold change kcat, PARLΔ77/PARLΔ55",human PARLΔ77 [1],10 fold
same,turnover / proteolysis with PARLΔ77 compared with PARLΔ55,human PARLΔ77 [1]; listed as IQ-Smac/Diablo,increase in proteolysis
same,turnover / proteolysis with PARLΔ77 compared with PARLΔ55,human PARLΔ77 [1]; listed as Smac/Diablo,significantly enhanced
same,Km,PARLΔ77 [2],5 ± 1 µM
same,kcat (turnover rate),PARLΔ77 [2],0.000333 ± 2.8e-05 s⁻¹
same,kcat/KM (catalytic efficiency),PARLΔ77 [2],83 ± 28 M⁻¹ s⁻¹
same,"fold change Km/kcat, PARLΔ77/PARLΔ55",human PARLΔ77 [3],1 fold
same,"fold change kcat, PARLΔ77/PARLΔ55",human PARLΔ77 [3],1 fold
same,ranking of substrate cleavage,human PARLΔ77 [3],fastest cleaved
same,turnover rate with PARLΔ77 compared with PARLΔ55,human PARLΔ77 [3]; listed as IQ-Smac/Diablo,no significant difference
same,turnover rate with PARLΔ77 compared with PARLΔ55,human PARLΔ77 [3]; listed as Smac/Diablo,remained unchanged
same,Km,PARLΔ77 [4],17 ± 4 µM
same,kcat/KM (catalytic efficiency),PARLΔ77 [4],944 ± 280 M⁻¹ s⁻¹
same,kcat (turnover rate),PARLΔ77 [4]; listed as Smac/Diablo,0.0161 ± 0.0019 s⁻¹
same,kcat (turnover rate),PARLΔ77 [4]; listed as Smac/Diablo51-60,0.0161 ± 0.0019 s⁻¹

# From article PMC7966987, “Insights into the catalytic properties of the mitochondrial rhomboid protease PARL” (The Journal of Biological Chemistry, 2021)
